What was measured:
Format in all cases: in vivo
mice = assay: Potentialisation of the toxicity of Yohimbine; settings: Yohimbine alone 35 mg/kg i.p.
Method: Yohimbine, injected to mice at a dose of 35 mg/kg i.p. causes the death of 10% to 30% treated animals. The compounds of the invention administered at a dose of 10 mg/kg i.p. 15 minutes before the injection of Yohimbine increase the rate of mortality (+80% with compounds of examples 5 and 7).

cerebral AMPc = assay: Stimulation of the synthesis of cerebral AMPc; settings: mice OF1/IFFA-Credo, 10 mg/kg intraperitoneally, five minutes after injection
Method: The compounds to be tested are administered intraperitoneally at a dose of 10 mg/kg to mice of strain OF1 /IFFA-Credo.
Five minutes after injection, the animals are sacrificed by freezing and the AMPc present in the cerebral structures is measured by radio immunology according to the Amersham method (specific binding protein).

rats = assay: Increase in the latency of the onset of sleep induced by Pentobarbital; settings: 10 mg/kg i.p. before pentobarbital 40 mg/kg i.p.
Method: Pentobarbital, injected in rats at a dose of 40 mg/kg i.p., induces the onset of sleep.

Row | SMILES | death of treated animals (mice) | increase of the intracerebral content of AMPc (cerebral AMPc) | effect on the onset of sleep induced by pentobarbital (in words) (rats)
1 | COC(=O)[C@@H]1[C@H]2C[C@H]3c4[nH]c5ccccc5c4CCN3C[C@@H]2CC[C@@H]1O [Yohimbine] | 10% to 30 |  | 
2 | NC(=O)[C@@H]1CCCN1C(=O)[C@H](Cc1c[nH]cn1)NC(=O)[C@@H]1CCC(=O)N1 [TRH, pyroglutamylhistidyl-prolinamide] |  | 46% | inactive
